Assay results from the supplement of paper PMC10307832.

Columns and labels:
Assay in all cases: relative viability (nuclei count vs DMSO), 5 days (fraction); higher = more cells survive
Selisistat + OSI-027 = compound: C1CC(C2=C(C1)C3=C(N2)C=CC(=C3)Cl)C(=O)N [Selisistat] + COc1cccc2cc(-c3nc([C@H]4CC[C@H](C(=O)O)CC4)n4ncnc(N)c34)[nH]c12 [OSI-027] (partner 0.5 µM)
Procedure, shortened: (§1)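 A single step with final 0.05% Triton X-100, 1% formaldehyde and 1 ug/ml Hoechst fixed the cells and stained nuclei 5 days after treatment. Lung cancer cell lines in 1536-well plates had been treated by pin tool the day after seeding with one drug alone or a fixed anchor-drug dose plus five library-drug doses (not always all listed) in √10 steps, and nuclei were counted on 4× images. Relative viability is the ratio of nuclei in treated wells to nuclei in vehicle wells, taken as the median of duplicate plates.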

Serdemetan + Linsitinib = compound: c1ccc2c(CCNc3ccc(Nc4ccncc4)cc3)c[nH]c2c1 [Serdemetan] + C[C@]1(O)C[C@@H](c2nc(-c3ccc4ccc(-c5ccccc5)nc4c3)c3c(N)nccn32)C1 [Linsitinib] (partner 1 µM)
Procedure, shortened: as §1

Selisistat + Vorinostat = compound: C1CC(C2=C(C1)C3=C(N2)C=CC(=C3)Cl)C(=O)N [Selisistat] + O=C(CCCCCCC(=O)Nc1ccccc1)NO [Vorinostat] (partner 1 µM)
Procedure, shortened: as §1

Serdemetan + Navitoclax = compound: c1ccc2c(CCNc3ccc(Nc4ccncc4)cc3)c[nH]c2c1 [Serdemetan] + CC1(C)CCC(c2ccc(Cl)cc2)=C(CN2CCN(c3ccc(C(=O)NS(=O)(=O)c4ccc(N[C@H](CCN5CCOCC5)CSc5ccccc5)c(S(=O)(=O)C(F)(F)F)c4)cc3)CC2)C1 [Navitoclax] (partner 0.5 µM)
Procedure, shortened: as §1

| Cell Line | relative viability (Selisistat + OSI-027; first compound 0.4 µM) | relative viability (Selisistat + OSI-027; first compound 1.265 µM) | relative viability (Selisistat + OSI-027; first compound 4 µM) | relative viability (Selisistat + OSI-027; first compound 12.65 µM) | relative viability (Selisistat + OSI-027; first compound 40 µM) | relative viability (Serdemetan + Linsitinib; first compound 0.04 µM) | relative viability (Serdemetan + Linsitinib; first compound 0.1265 µM) | relative viability (Serdemetan + Linsitinib; first compound 1.265 µM) | relative viability (Serdemetan + Linsitinib; first compound 4 µM) | relative viability (Selisistat + Vorinostat; first compound 0.4 µM) | relative viability (Selisistat + Vorinostat; first compound 1.265 µM) | relative viability (Selisistat + Vorinostat; first compound 12.65 µM) | relative viability (Selisistat + Vorinostat; first compound 40 µM) | relative viability (Serdemetan + Navitoclax; first compound 0.04 µM) | relative viability (Serdemetan + Navitoclax; first compound 0.1265 µM) | relative viability (Serdemetan + Navitoclax; first compound 1.265 µM) | relative viability (Serdemetan + Navitoclax; first compound 4 µM) | relative viability (Serdemetan + Linsitinib; first compound 0.4 µM) | relative viability (Selisistat + Vorinostat; first compound 4 µM) | relative viability (Serdemetan + Navitoclax; first compound 0.4 µM) |
| --- | --- | --- | --- | --- | --- | --- | --- | --- | --- | --- | --- | --- | --- | --- | --- | --- | --- | --- | --- | --- |
| PC-3 [JPC-3] | 0.931 | 0.776 | 0.739 | 0.662 | 0.731 | 0.92 | 0.972 | 0.919 | 0.985 | 0.899 | 0.979 | 0.748 | 0.691 | 0.747 | 0.713 | 0.76 | 0.762 | – | – | – |
| PC-14 | 0.973 | 0.783 | 0.755 | 0.819 | 0.931 | 0.901 | 0.952 | 0.78 | 0.805 | 0.914 | 0.764 | 0.776 | 0.931 | 0.977 | 0.974 | 0.923 | 0.697 | 0.909 | 0.843 | 0.954 |
| RERF-LC-KJ | 0.742 | 0.525 | 0.51 | 0.532 | 0.533 | 0.869 | 0.851 | 0.745 | 0.727 | 0.665 | 0.759 | 0.763 | 0.708 | 1.15 | 0.842 | 0.805 | 0.983 | 0.857 | 0.731 | 1.06 |
| SK-LU-1 | 0.431 | 0.366 | 0.334 | 0.359 | 0.416 | 1.13 | 1.14 | 1.03 | 0.732 | 0.747 | 0.792 | 0.821 | 0.927 | 0.809 | 0.971 | 0.705 | 0.639 | 1.07 | 1.02 | 0.853 |
| SK-MES-1 | 0.638 | 0.668 | 0.657 | 0.437 | 0.646 | 0.964 | 1.2 | 0.796 | 0.674 | 1.13 | 1.15 | 1.1 | 1.18 | 1.21 | 1.24 | 0.917 | 0.551 | 1.03 | 1.01 | 1.25 |
| SW 1573 | 0.704 | 0.616 | 0.664 | 0.772 | 0.545 | 0.81 | 0.769 | 0.346 | 0.258 | 0.761 | 0.94 | 1.19 | 1.03 | 0.898 | 0.876 | 0.303 | 0.105 | 0.738 | – | 1.02 |
